Patent US20110190129A1, “IMPROVEMENTS IN OR RELATING TO ORGANIC COMPOUNDS” (SYNGENTA LIMITED, priority 2007, published 2011)
Like-named read-outs stand apart in the source and are kept apart here. Marks after values point to notes of the source that are not given here.

Experiment: Solubility of pesticide samples in solvents (equilibration, 25 C, HPLC analysis)
Assay type: physicochemical
Procedure: The following general method is used to measure the solubility of pesticide samples in solvents. A 2 ml aliquot of solvent is added to a 5 ml volume glass vial. Pesticide is added such that half of the volume of the liquid is filled. The sample is shaken for one minute and left to stand for 24 hours. Samples which have dissolved are refilled with more of the pesticide, shaken and left for a further 24 hours. This process is continued until the samples have equilibrated for three days without the need for further pesticide addition. The samples are then placed in a temperature controlled oven at 25 C for one week prior to analysis by high pressure liquid chromatography. All samples are filtered and centrifuged prior to chromatographic analysis.

[1] = comparison in words, dimethyl lactamide versus the other two solvents
[2] = solvent Solvesso 200ND, 25 C, Table 1
[3] = solvent acetophenone, 25 C, Table 1
[4] = solvent dimethyl lactamide, 25 C, Table 1

SMILES	Solubility in dimethyl lactamide compared with Solvesso 200ND or acetophenone [1]	Solubility in Solvesso 200ND [2]	Solubility in acetophenone [3]	Solubility in dimethyl lactamide [4]	Solubility in dimethyl lactamide compared with Solvesso 200ND or acetophenone	Solubility in Solvesso 200ND (1 week)	Solubility in dimethyl lactamide (1 week)	also measured
CN1COCN(Cc2cnc(Cl)s2)/C1=N\[N+](=O)[O-] [Thiamethoxam, thiamethoxam]	better	0.2 % w/w	5.0 % w/w	9.0 % w/w	–	–	–	–
N#Cc1c[nH]cc1-c1cccc2c1OC(F)(F)O2 [Fludioxynil]	better	0.3 % w/w	8.5 % w/w	30.1 % w/w	–	–	–	–
CCN(CC)C(=O)C(C)Oc1cccc2ccccc12 (stereo not drawn) [Napropamide, napropamide]	–	–	–	–	lower	–	–	Solubility in Solvesso 200ND: 20.7; Solubility in acetophenone: 27.6 % w/w; Solubility in dimethyl lactamide: 19.2 % w/w
CCO/N=C(\CC)C1=C(O)CC(c2c(C)cc(C)cc2C)CC1=O (stereo not drawn) [Tralkoxydim, tralkoxydim]	–	–	–	–	lower	–	–	Solubility in acetophenone: 12.7 % w/w; Solubility in dimethyl lactamide: 3.2 % w/w
CCCCC(O)(Cn1cncn1)c1ccc(Cl)cc1Cl (stereo not drawn) [Hexaconazole, hexaconazole]	–	–	–	–	better	4.4 % w/w	18 % w/w	Solubility in acetophenone (1 week): 11.7 % w/w
CCNc1nc(NC(C)C)nc(SC)n1 [Ametryn]	–	–	–	–	–	29.3 % w/w	53.0 % w/w	Solubility in acetophenone (1 week): 47.4 % w/w
CNC(=O)c1cc(Cl)cc(C)c1NC(=O)c1cc(Br)nn1-c1ncccc1Cl [Rynaxypry]	–	0.06 % w/w	0.75 % w/w	2.8 % w/w	–	–	–	–
Fc1ccc([C@]2(Cn3cncn3)O[C@H]2c2ccccc2Cl)cc1 (racemic) [Epoxiconazole, epoxiconazole]	–	–	–	–	–	2.5 % w/w	8.0 % w/w	–
CN(C)C(=O)Nc1ccc(Cl)c(Cl)c1 [Diuron]	–	<0.2* % w/w	4.8 % w/w	11.0 % w/w	–	–	–	–
N#Cc1c(Cl)c(Cl)c(Cl)c(C#N)c1Cl [Chlorothalonil, chlorothalonil]	lower	–	–	–	–	–	–	–
CC(C)C1C2CCC1c1c(NC(=O)c3cn(C)nc3C(F)F)cccc12 (stereo not drawn) [Compound of FIG. 2, 3-difluoromethyl-1-methyl-1H-pyrazole-4-carboxylic acid(9-isopropyl-1,2,3,4-tetrahydro-1,4-methano-naphthalen-5-yl)-amide]	better	5.6 % w/w	14.1 % w/w	32.1 % w/w	–	–	–	–
CSc1nc(NC(C)C)nc(NC(C)C)n1 [Prometryn, prometryn]	–	–	–	–	better	12 % w/w	43 % w/w	Solubility in acetophenone (1 week): 19 % w/w
